{
  "source": "patent US20080280862A1",
  "about": "“Methods, compositions, and kits for the treatment of pain” (priority 2007, published 2008)",
  "key": {"TNFα": {"system": "TNFα", "assay": "TNFα secretion by human white blood cells stimulated with PMA/ionomycin, synergy score", "format": "cell-based", "parameters": "key: S = Σ Idata(Idata−ILoewe) × ln dilution factors; volume over Loewe additivity", "conditions": "PBMC stimulated with PMA/Ionomycin", "procedure,_shortened": "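Diluted human white blood cells stimulated with 10 ng/mL PMA and 750 ng/mL ionomycin (final) plus compound combinations at various concentrations, 16-18 h at 37 °C. Secreted TNFα measured by sandwich luminescent ELISA; synergy score is the dilution-weighted volume between measured and Loewe additive inhibition surfaces.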"}, "[1]": {"system": "carrageenan-induced pain model in rats", "assay": "Carrageenan pain model, mechanical allodynia by Von Frey filaments", "format": "in vivo, Sprague-Dawley rats", "procedure,_shortened": "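Male Sprague-Dawley rats dosed IP once daily on days −2 and −1 and 30 min before intraplantar 0.1 ml 2% carrageenan. Von Frey withdrawal force (g) measured at 0–120 min post-injection; values are mean change from pre-dose baseline across five timepoints. Synergy by median-effect model and combination index.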"}},
  "data": [
    {"smiles": "CN(C)CCC=C1c2ccccc2CCc2ccccc21", "note": "[Amitriptyline]", "values": [
      {"measurement": "Synergy Score based on TNF-α inhibition", "setting": "TNFα; combination with Betamethasone", "result": 0.7},
      {"measurement": "Synergy Score based on TNF-α inhibition", "setting": "TNFα; combination with Budesonide", "result": 0.78},
      {"measurement": "Synergy Score based on TNF-α inhibition", "setting": "TNFα; combination with Clobetasol", "result": 0.75},
      {"measurement": "Synergy Score based on TNF-α inhibition", "setting": "TNFα; combination with Dexamethasone", "result": 1.2},
      {"measurement": "Synergy Score based on TNF-α inhibition", "setting": "TNFα; combination with Diflorasone", "result": 0.59},
      {"measurement": "Synergy Score based on TNF-α inhibition", "setting": "TNFα; combination with Hydrocortisone", "result": 0.78},
      {"measurement": "Synergy Score based on TNF-α inhibition", "setting": "TNFα; combination with Prednisolone", "result": 0.68},
      {"measurement": "Synergy Score based on TNF-α inhibition", "setting": "TNFα; combination with Triamcinolone", "result": 0.34},
      {"measurement": "Mean change from baseline ± SEM", "setting": "[1]; Experiment One, 1 mg/kg, 20 minutes", "result": "3.40 ± 3.40", "unit": "g"},
      {"measurement": "Mean change from baseline ± SEM", "setting": "[1]; Experiment One, 1 mg/kg, 40 minutes", "result": "-49.80 ± 5.19", "unit": "g"},
      {"measurement": "Mean change from baseline ± SEM", "setting": "[1]; Experiment One, 1 mg/kg, 60 minutes", "result": "-113.80 ± 7.21", "unit": "g"},
      {"measurement": "Mean change from baseline ± SEM", "setting": "[1]; Experiment One, 1 mg/kg, 80 minutes", "result": "-177.80 ± 10.44", "unit": "g"},
      {"measurement": "Mean change from baseline ± SEM", "setting": "[1]; Experiment One, 1 mg/kg, 120 minutes", "result": "-231.00 ± 12.33", "unit": "g"},
      {"measurement": "Mean change from baseline ± SEM", "setting": "[1]; Experiment One, 3 mg/kg, 20 minutes", "result": "11.40 ± 5.82", "unit": "g"},
      {"measurement": "Mean change from baseline ± SEM", "setting": "[1]; Experiment One, 3 mg/kg, 40 minutes", "result": "-56.60 ± 9.09", "unit": "g"},
      {"measurement": "Mean change from baseline ± SEM", "setting": "[1]; Experiment One, 3 mg/kg, 60 minutes", "result": "-120.60 ± 11.72", "unit": "g"},
      {"measurement": "Mean change from baseline ± SEM", "setting": "[1]; Experiment One, 3 mg/kg, 80 minutes", "result": "-173.80 ± 9.90", "unit": "g"},
      {"measurement": "Mean change from baseline ± SEM", "setting": "[1]; Experiment One, 3 mg/kg, 120 minutes", "result": "-192.10 ± 10.67", "unit": "g"},
      {"measurement": "Mean change from baseline ± SEM", "setting": "[1]; Experiment One, 10 mg/kg, 20 minutes", "result": "11.30 ± 5.83", "unit": "g"},
      {"measurement": "Mean change from baseline ± SEM", "setting": "[1]; Experiment One, 10 mg/kg, 40 minutes", "result": "-41.90 ± 9.86", "unit": "g"},
      {"measurement": "Mean change from baseline ± SEM", "setting": "[1]; Experiment One, 10 mg/kg, 60 minutes", "result": "-99.10 ± 11.33", "unit": "g"},
      {"measurement": "Mean change from baseline ± SEM", "setting": "[1]; Experiment One, 10 mg/kg, 80 minutes", "result": "-148.90 ± 12.63", "unit": "g"},
      {"measurement": "Mean change from baseline ± SEM", "setting": "[1]; Experiment One, 10 mg/kg, 120 minutes", "result": "-177.70 ± 16.01", "unit": "g"},
      {"measurement": "Mean change from baseline ± SEM", "setting": "[1]; Experiment One, 20 mg/kg, 20 minutes", "result": "19.90 ± 6.68", "unit": "g"},
      {"measurement": "Mean change from baseline ± SEM", "setting": "[1]; Experiment One, 20 mg/kg, 40 minutes", "result": "-33.30 ± 7.80", "unit": "g"},
      {"measurement": "Mean change from baseline ± SEM", "setting": "[1]; Experiment One, 20 mg/kg, 60 minutes", "result": "-93.30 ± 7.80", "unit": "g"},
      {"measurement": "Mean change from baseline ± SEM", "setting": "[1]; Experiment One, 20 mg/kg, 80 minutes", "result": "-138.60 ± 6.03", "unit": "g"},
      {"measurement": "Mean change from baseline ± SEM", "setting": "[1]; Experiment Two, first set of rows, 3 mg/kg, 20 minutes", "result": "-2.20 ± 3.62", "unit": "g"},
      {"measurement": "Mean change from baseline ± SEM", "setting": "[1]; Experiment Two, first set of rows, 3 mg/kg, 40 minutes", "result": "-6.19 ± 5.21", "unit": "g"},
      {"measurement": "Mean change from baseline ± SEM", "setting": "[1]; Experiment Two, first set of rows, 3 mg/kg, 60 minutes", "result": "-1.60 ± 3.83", "unit": "g"},
      {"measurement": "Mean change from baseline ± SEM", "setting": "[1]; Experiment Two, first set of rows, 3 mg/kg, 80 minutes", "result": "15.70 ± 5.20", "unit": "g"},
      {"measurement": "Mean change from baseline ± SEM", "setting": "[1]; Experiment Two, first set of rows, 3 mg/kg, 120 minutes", "result": "26.61 ± 4.90", "unit": "g"}
    ]}
  ]
}
